This passage reports inhibition results from patent US8906925B2, “Pyrido[4,3-B]indoles containing rigid moieties” (Medivation Technologies, Inc., priority 2008, dated 2014).

For one assay, the target named is histamine receptor H1 (Homo sapiens, UniProt P35367). The experiment in a line: Histamine H1 radioligand binding ([3H]Pyrilamine). The settings on record: read-out: Histamine Binding (1 μM) H1, percent inhibition of specific binding, 1 μM. In outline: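 Values are percent inhibition of specific [3H]pyrilamine (1.2 nM) binding with compounds at ≤1 μM (1% DMSO vehicle); 180 min incubation at 25 °C, pH 7.4 Tris buffer, on CHO-expressed human H1 receptor; 1 μM pyrilamine defined nonspecific binding, bound ligand counted after filtration.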

Assay [1] has as its target T1, human recombinant serotonin (5-Hydroxytryptamine) 5-HT2A receptor (Homo sapiens, UniProt P28223).
T1 construct: expressed in transfected cells; host or cells: Chinese hamster ovary (CHO-K1) cells
Nature of the assay: Serotonin 5-HT2A radioligand binding ([3H]Ketanserin). The note with it: read-out: Inhibition of ligand binding, Serotonin 5-HT2A (percent inhibition of specific binding), compound at 1 μM. As for the experimental part:
Compounds of the invention were incubated with 0.5 nM [^3H]Ketanserin for 60 min. at 25° C. Non-specific binding was estimated in the presence of 1 μM Mianserin. Receptor proteins were filtered and washed, the filters were then counted to determine [^3H]Ketanserin specifically bound.

In assay [2] the target is human dopamine D2L receptor (Homo sapiens, UniProt P14416). The experiment in a line: Dopamine D2L radioligand binding ([3H]Spiperone). The note with it: compound at 1 μM. The source says:
Non-specific binding was estimated in the presence of […] Haloperidol. Receptor proteins were filtered and washed, the filters were then counted to determine [^3H]Spiperone specifically bound. […] Biochemical assay results are presented as the percent inhibition of specific binding in Table 9.

Where [3] appears, read: […] [3H]Spiperone, read-out: Inhibition of ligand binding, Dopamine D2L (percent inhibition of specific binding).
Where [4] appears, read: percent inhibition of specific binding, read-out: Inhibition of ligand binding, Dopamine D2L.

Read-outs that look alike come from different tables or passages of the source.

Chain of histamine receptor H1 (P35367 whole entry): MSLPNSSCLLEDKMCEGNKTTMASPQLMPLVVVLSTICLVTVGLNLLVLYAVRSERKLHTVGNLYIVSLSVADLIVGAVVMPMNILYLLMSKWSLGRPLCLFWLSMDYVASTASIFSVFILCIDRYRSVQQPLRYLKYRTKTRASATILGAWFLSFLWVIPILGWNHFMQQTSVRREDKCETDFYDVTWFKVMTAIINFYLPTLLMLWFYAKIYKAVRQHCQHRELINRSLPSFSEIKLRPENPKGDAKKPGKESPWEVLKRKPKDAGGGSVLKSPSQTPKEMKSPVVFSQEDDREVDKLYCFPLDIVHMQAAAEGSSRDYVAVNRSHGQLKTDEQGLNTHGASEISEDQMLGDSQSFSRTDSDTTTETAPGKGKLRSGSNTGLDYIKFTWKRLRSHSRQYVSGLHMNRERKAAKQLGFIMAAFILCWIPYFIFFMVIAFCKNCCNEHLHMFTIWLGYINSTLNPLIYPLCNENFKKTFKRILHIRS
Chain of human dopamine D2L receptor (P14416 whole entry): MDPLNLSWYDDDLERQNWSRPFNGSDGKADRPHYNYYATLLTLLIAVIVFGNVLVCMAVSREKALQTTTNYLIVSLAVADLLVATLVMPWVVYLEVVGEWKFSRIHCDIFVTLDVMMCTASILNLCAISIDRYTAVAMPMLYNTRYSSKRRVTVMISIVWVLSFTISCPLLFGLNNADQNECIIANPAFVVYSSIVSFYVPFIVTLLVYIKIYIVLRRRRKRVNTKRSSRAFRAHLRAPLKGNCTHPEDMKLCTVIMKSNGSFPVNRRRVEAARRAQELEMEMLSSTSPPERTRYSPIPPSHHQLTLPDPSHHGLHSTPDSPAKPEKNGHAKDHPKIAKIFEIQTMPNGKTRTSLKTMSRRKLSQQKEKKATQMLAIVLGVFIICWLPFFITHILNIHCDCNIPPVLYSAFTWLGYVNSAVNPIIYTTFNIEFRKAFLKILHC
T1 sequence (P28223 whole entry): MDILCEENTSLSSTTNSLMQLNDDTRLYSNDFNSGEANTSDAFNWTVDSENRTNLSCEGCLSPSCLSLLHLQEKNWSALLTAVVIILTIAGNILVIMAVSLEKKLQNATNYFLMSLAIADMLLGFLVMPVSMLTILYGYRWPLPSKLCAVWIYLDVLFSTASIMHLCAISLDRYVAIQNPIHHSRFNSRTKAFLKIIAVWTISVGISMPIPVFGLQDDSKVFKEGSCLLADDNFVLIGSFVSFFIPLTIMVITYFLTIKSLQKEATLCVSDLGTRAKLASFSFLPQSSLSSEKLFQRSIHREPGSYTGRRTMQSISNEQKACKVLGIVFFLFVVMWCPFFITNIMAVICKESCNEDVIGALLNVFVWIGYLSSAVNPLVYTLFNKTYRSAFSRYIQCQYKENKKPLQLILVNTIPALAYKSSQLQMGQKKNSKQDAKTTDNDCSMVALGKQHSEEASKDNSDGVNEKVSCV

Take `CN1CCc2c(c3cccc(Cl)c3n2C[C@@](C)(O)c2ccncc2)C1` [Compound No. 469, (S)-1-(6-chloro-2-methyl-3,4-dihydro-1H-pyrido[4,3-b]indol-5(2H)-yl)-2-(pyridin-4-yl)propan-2-ol]: the inhibition (as a rule, the change of the read-out against control, counted positive when it falls) at 1 µM at histamine receptor H1 is 14%; in assay [1], 87%; in assay [2] (setting [3]) it was 12%.

For the molecule `CN1CCc2c(c3cccc(Cl)c3n2C[C@](C)(O)c2ccncc2)C1` [Compound No. 470, (R)-1-(6-chloro-2-methyl-3,4-dihydro-1H-pyrido[4,3-b]indol-5(2H)-yl)-2-(pyridin-4-yl)propan-2-ol], the inhibition at 1 µM was found to be 17% at histamine receptor H1, 89% in assay [1] and 1% in assay [2] (setting [3]).

With `CC/C(=C\n1c2c(c3cc(C)ccc31)CN(C)CC2)c1ccncc1` [Compound 283, (E)-2,8-dimethyl-5-(2-(pyridin-4-yl)but-1-enyl)-2,3,4,5-tetrahydro-1H-pyrido[4,3-b]indole], the figures for the inhibition at 1 µM (on histamine receptor H1; in assay [2] (setting [4])) were 23% and 66%, respectively.

With `Cc1ccc2c(c1)c1c(n2/C=C(\F)c2ccncc2)CCN(C)C1` [compound 426, (Z)-5-(2-fluoro-2-(pyridin-4-yl)vinyl)-2,8-dimethyl-2,3,4,5-tetrahydro-1H-pyrido[4,3-b]indole], the figures for the inhibition at 1 µM (on histamine receptor H1; in assay [2] (setting [3])) were 50% and 32%, respectively.

`Cc1ccc2c(c1)c1c(n2CC(C)(O)c2ccncc2)CCN(C2CC2)C1` (stereo not shown) [Compound 342, 1-(2-cyclopropyl-8-methyl-3,4-dihydro-1H-pyrido[4,3-b]indol-5(2H)-yl)-2-(pyridin-4-yl)propan-2-ol]: the inhibition at 1 µM worked out at 48% at histamine receptor H1 and 11% in assay [2] (setting [4]).

On to `C/C(=C\n1c2c(c3cc(C)ccc31)CN(C=O)CC2)c1ccncc1` [compound 411, (E)-8-methyl-5-(2-(pyridin-4-yl)prop-1-enyl)-3,4-dihydro-1H-pyrido[4,3-b]indole-2(5H)-carbaldehyde], for which the inhibition at 1 µM on histamine receptor H1 amounted to 0%; in assay [2] (setting [3]), 55%.

As for `C=C(Cn1c2c(c3cc(Cl)ccc31)CN(C)C(C)C2)c1ccncc1` (stereo not shown) [Compound 365, 8-chloro-2,3-dimethyl-5-(2-(pyridin-4-yl)allyl)-2,3,4,5-tetrahydro-1H-pyrido[4,3-b]indole], the values for the inhibition at 1 µM (at histamine receptor H1; in assay [2] (setting [3])) were 92% and 49%, respectively.

For `C/C=C(\Cn1c2c(c3cc(Cl)ccc31)CN(C)CC2)c1ccncc1` [Compound No. 360, (Z)-8-chloro-2-methyl-5-(2-(pyridin-4-yl)but-2-enyl)-2,3,4,5-tetrahydro-1H-pyrido[4,3-b]indole], the inhibition at 1 µM was 47% on histamine receptor H1 and 36% in assay [2] (setting [3]).

In the case of `C/C(=C\n1c2c(c3cc(NC4CC4)ccc31)CN(C)CC2)c1ccncc1` [compound 447, (E)-N-cyclopropyl-2-methyl-5-(2-(pyridin-4-yl)prop-1-enyl)-2,3,4,5-tetrahydro-1H-pyrido[4,3-b]indol-8-amine], the inhibition at 1 µM on histamine receptor H1 is -1%; in assay [2] (setting [3]), 59%.

As to `COc1ccc(/C(C)=C/n2c3c(c4cc(Cl)ccc42)CN(C)CC3)cn1` [compound 454, (E)-8-chloro-5-(2-(6-methoxypyridin-3-yl)prop-1-enyl)-2-methyl-2,3,4,5-tetrahydro-1H-pyrido[4,3-b]indole], the inhibition at 1 µM on histamine receptor H1 was 21%; in assay [2] (setting [3]), 80%.

Take `Cc1ccc2c(c1)c1c(n2C#Cc2ccncn2)CCN(C)C1` [Compound No. 499, 2,8-dimethyl-5-(pyrimidin-4-ylethynyl)-2,3,4,5-tetrahydro-1H-pyrido[4,3-b]indole]: the inhibition at 1 µM at histamine receptor H1 came out at 26%; in assay [2] (setting [3]), 18%.

For the molecule `C/C(=C\n1c2c(c3cc(Cl)ccc31)CN(C)[C@@H](C)C2)c1ccncc1` [compound 391, (S,E)-8-chloro-2,3-dimethyl-5-(2-(pyridin-4-yl)prop-1-enyl)-2,3,4,5-tetrahydro-1H-pyrido[4,3-b]indole], the inhibition at 1 µM on histamine receptor H1 was found to be 84%; in assay [2] (setting [3]), 72%.

Consider `CNC(=O)c1ccc(/C(F)=C(/c2ccc(C(=O)NC)c(F)c2)n2c3c(c4cc(C)ccc42)CN(C)CC3)cc1F` [compound 423, (E)-4,4′-(1-(2,8-dimethyl-3,4-dihydro-1H-pyrido[4,3-b]indol-5(2H)-yl)-2-fluoroethene-1,2-diyl)bis(2-fluoro-N-methylbenzamide)], for which the results for the inhibition at 1 µM (at histamine receptor H1; in assay [2] (setting [3])) were 31% and -10%, respectively.

Turning to `C/C(=C/n1c2c(c3cc(C)ccc31)CN(C)CC2)c1cccc(C(=O)N(C)C)c1` [Compound No. 458, (Z)-3-(1-(2,8-dimethyl-3,4-dihydro-1H-pyrido[4,3-b]indol-5(2H)-yl)prop-1-en-2-yl)-N,N-dimethylbenzamide], the inhibition at 1 µM was 56% at histamine receptor H1 and 15% in assay [2] (setting [3]).

For `C/C(=C/n1c2c(c3cc(Cl)ccc31)CN(C)CC2)c1ccc(F)cc1` [compound 397, (Z)-8-chloro-5-(2-(4-fluorophenyl)prop-1-enyl)-2-methyl-2,3,4,5-tetrahydro-1H-pyrido[4,3-b]indole], the inhibition at 1 µM at histamine receptor H1 amounted to 89%; in assay [2] (setting [3]), 80%.

For the molecule `C/C(=C\n1c2c(c3cc(N4CCN(C)CC4)ccc31)CN(C)CC2)c1ccncc1` [compound 437, (E)-2-methyl-8-(4-methylpiperazin-1-yl)-5-(2-(pyridin-4-yl)prop-1-enyl)-2,3,4,5-tetrahydro-1H-pyrido[4,3-b]indole], the inhibition at 1 µM is 44% on histamine receptor H1 and 15% in assay [2] (setting [3]).

Turning to `CN1CCc2c(c3cc(Cl)ccc3n2/C=C/c2ccccc2)C1` [compound 415, (E)-8-chloro-2-methyl-5-styryl-2,3,4,5-tetrahydro-1H-pyrido[4,3-b]indole], the inhibition at 1 µM at histamine receptor H1 turned out to be 97%; in assay [2] (setting [3]), 95%.

Regarding `C/C(=C\n1c2c(c3cc(C)ccc31)CN(CCF)CC2)c1ccncc1` [compound 422, (E)-2-(2-fluoroethyl)-8-methyl-5-(2-(pyridin-4-yl)prop-1-enyl)-2,3,4,5-tetrahydro-1H-pyrido[4,3-b]indole], the inhibition at 1 µM on histamine receptor H1 came out at 8%; in assay [2] (setting [3]), 68%.

On to `C/C(=C/n1c2c(c3cc(C)ccc31)CN(C)CC2)C1CCCCC1` [Compound 368, (Z)-5-(2-cyclohexylprop-1-enyl)-2,8-dimethyl-2,3,4,5-tetrahydro-1H-pyrido[4,3-b]indole], for which the inhibition at 1 µM came out at 82% on histamine receptor H1 and 74% in assay [2] (setting [3]).

For the molecule `Cc1ccc2c(c1)c1c(n2CC(O)(c2ccccc2)c2ccccc2)CCN(C)C1` [Compound No. 465, 2-(2,8-dimethyl-3,4-dihydro-1H-pyrido[4,3-b]indol-5(2H)-yl)-1,1-diphenylethanol], the inhibition at 1 µM at histamine receptor H1 is -14%; in assay [2] (setting [3]), 21%.

For the molecule `C/C(=C(/C)n1c2c(c3cc(C)ccc31)CN(C)CC2)c1ccc(F)cc1` [compound 421, (E)-5-(3-(4-fluorophenyl)but-2-en-2-yl)-2,8-dimethyl-2,3,4,5-tetrahydro-1H-pyrido[4,3-b]indole], the inhibition at 1 µM turned out to be 93% at histamine receptor H1 and 79% in assay [2] (setting [3]).

On to `C/C(=C\n1c2c(c3cc(Cl)ccc31)CN(C)CC2)c1ccncn1` [Compound 289, (E)-8-chloro-2-methyl-5-(2-(pyrimidin-4-yl)prop-1-enyl)-2,3,4,5-tetrahydro-1H-pyrido[4,3-b]indole], for which the inhibition at 1 µM was determined as 34% at histamine receptor H1 and 90% in assay [2] (setting [4]).
